Where two headings read alike, the source gives them in different places.

The values that follow come from US8129371B2, “Thienopyrimidine and pyrazolopyrimidine compounds and their use as mTOR kinase and PI3 kinase inhibitors” (Wyeth LLC, priority 2007, dated 2012).

The target in assay [1] is T1, PI3K (Homo sapiens, UniProt P48736).
T1 construct: PI3 Kinase γ IC50; other: PI3 Kinase γ; other: PI3 Kinase γ isoform, fluorescence polarization
Kind of assay: Fluorescence polarization assay for PI3K. To be noted: read-out: PI3 Kinase γ IC50. Type of assay: biochemical. A digest of the protocol:
(§1)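 Fluorescence-polarization competition readout: after 30–60 min of PIP2/ATP turnover in 1% DMSO, a stop mix with GST-GRP (70 nM) and red probe (10 nM) was added.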
Background: Fluorescence polarisation rises when a labelled molecule tumbles more slowly, as on binding a larger partner.

Assay [2] addresses T2, PI3K (Homo sapiens, UniProt P42336).
T2 construct: PI3 Kinase α IC50; other: PI3 Kinase α; other: PI3 Kinase α isoform, fluorescence polarization
Kind of assay: Fluorescence polarization assay for PI3K. Type of assay: biochemical. Particulars: read-out: PI3 Kinase α IC50. An outline of the steps:
as §1

A further assay concerns prostate line LNCap. Kind of assay: In vitro cell culture growth assay (MTS), LNCap. Type of assay: cell-based. To be noted: Homo sapiens, LNCaP, 72 h, LNCap cells, three days after drug treatment. A digest of the protocol:
(§2)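 Cells were plated and, one day later, treated with inhibitors. Three days after treatment, viable cell density was measured by MTS dye conversion, read as absorbance at 490 nm. Effects are expressed as percent of control growth versus vehicle-treated cells on the same plate.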

A further assay addresses T3, Human mTOR (FLAG-TOR) (Homo sapiens, UniProt P42345).
T3 construct: FLAG
Kind of assay: Human mTOR kinase assay with purified enzyme, DELFIA format. It counts as biochemical. A digest of the protocol:
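DELFIA readout: Eu-anti-P(T389)-S6K antibody (40 ng/mL, 1 h) on captured His6-S6K from the stopped reaction. Kinase step used purified FLAG-tagged human mTOR with test compound in HEPES (pH 7.4)/MnCl2/DTT buffer, 2 h at room temperature (linear 1–6 h), terminated by EDTA/EGTA.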

The subject of a further assay is breast line MDA468. Kind of assay: In vitro cell culture growth assay (MTS), MDA468. Type of assay: cell-based. Particulars: Homo sapiens, 72 h, MDA468 cells, three days after drug treatment. An outline of the steps: as §2
Setting [3] is: PI3 Kinase γ isoform, fluorescence polarization.
The mark [4] stands for this setting: PI3 Kinase α isoform, fluorescence polarization.
[5] abbreviates: purified human mTOR enzyme, DELFIA format.

T1 sequence (P48736 whole entry, canonical isoform): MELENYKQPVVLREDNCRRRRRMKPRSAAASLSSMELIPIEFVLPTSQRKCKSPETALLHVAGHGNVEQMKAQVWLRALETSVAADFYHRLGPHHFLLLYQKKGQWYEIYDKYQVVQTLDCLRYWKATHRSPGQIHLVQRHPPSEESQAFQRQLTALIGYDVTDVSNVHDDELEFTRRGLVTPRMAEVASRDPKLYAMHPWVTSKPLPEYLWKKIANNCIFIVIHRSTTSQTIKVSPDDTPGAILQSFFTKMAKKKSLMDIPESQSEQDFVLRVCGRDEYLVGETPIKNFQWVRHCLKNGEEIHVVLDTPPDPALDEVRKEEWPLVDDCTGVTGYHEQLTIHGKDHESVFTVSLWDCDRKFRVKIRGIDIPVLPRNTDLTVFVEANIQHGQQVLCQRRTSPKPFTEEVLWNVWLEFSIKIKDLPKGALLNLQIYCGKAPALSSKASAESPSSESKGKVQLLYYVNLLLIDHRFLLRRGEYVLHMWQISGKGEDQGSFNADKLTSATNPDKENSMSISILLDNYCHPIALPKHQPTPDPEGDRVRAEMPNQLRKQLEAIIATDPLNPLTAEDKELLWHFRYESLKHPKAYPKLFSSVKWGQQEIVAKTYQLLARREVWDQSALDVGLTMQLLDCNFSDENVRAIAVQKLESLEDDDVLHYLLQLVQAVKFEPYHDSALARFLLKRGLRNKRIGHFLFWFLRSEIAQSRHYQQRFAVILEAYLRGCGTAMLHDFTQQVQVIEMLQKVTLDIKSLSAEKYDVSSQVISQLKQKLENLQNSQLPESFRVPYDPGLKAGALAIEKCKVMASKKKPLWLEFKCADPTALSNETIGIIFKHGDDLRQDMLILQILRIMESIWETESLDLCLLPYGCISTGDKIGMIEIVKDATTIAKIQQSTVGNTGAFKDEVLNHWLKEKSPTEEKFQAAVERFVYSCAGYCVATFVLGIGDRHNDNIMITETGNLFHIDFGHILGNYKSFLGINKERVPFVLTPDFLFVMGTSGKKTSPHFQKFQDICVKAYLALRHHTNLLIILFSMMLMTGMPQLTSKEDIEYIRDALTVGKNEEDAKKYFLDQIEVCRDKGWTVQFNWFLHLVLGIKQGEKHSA
T2 sequence (P42336 whole entry, canonical isoform): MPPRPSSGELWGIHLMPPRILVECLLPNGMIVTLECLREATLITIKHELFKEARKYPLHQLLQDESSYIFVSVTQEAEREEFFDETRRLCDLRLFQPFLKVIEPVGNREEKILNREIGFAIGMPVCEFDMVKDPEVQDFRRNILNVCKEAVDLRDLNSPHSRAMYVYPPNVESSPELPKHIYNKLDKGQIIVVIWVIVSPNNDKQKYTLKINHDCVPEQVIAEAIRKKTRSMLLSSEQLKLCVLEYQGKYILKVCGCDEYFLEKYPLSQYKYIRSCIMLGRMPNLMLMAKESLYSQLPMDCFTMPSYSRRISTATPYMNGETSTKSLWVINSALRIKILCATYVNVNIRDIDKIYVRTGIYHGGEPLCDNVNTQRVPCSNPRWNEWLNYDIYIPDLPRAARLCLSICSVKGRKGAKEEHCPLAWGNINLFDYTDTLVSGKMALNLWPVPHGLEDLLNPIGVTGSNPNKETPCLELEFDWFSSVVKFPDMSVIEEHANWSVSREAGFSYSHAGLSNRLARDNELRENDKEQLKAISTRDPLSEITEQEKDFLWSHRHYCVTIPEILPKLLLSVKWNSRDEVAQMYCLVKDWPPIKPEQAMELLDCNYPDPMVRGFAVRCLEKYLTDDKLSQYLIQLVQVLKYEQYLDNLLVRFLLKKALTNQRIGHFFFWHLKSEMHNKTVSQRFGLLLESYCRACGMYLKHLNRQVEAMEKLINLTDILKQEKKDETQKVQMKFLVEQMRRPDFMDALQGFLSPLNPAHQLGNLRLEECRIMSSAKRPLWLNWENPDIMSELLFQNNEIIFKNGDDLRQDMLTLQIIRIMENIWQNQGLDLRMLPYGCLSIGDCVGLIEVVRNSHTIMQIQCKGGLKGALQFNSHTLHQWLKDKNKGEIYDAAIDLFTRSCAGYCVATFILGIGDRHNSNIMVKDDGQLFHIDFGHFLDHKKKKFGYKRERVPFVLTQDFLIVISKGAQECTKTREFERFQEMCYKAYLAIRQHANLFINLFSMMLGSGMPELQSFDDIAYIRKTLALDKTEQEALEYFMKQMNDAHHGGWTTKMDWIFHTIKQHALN

The term IC50 denotes the midpoint of a concentration-inhibition curve. Turning to `Nc1ccc(-c2nc(N3CC4CCC(C3)O4)c3cnn(CCO)c3n2)cc1` [Example 207, 2-[6-(4-aminophenyl)-4-(8-oxa-3-azabicyclo[3.2.1]oct-3-yl)-1H-pyrazolo[3,4-d]pyrimidin-1-yl]ethanol], the IC50 on PI3K [1] (PI3 Kinase γ) is > 10000 nM; at PI3K [2] (PI3 Kinase α) it was 3590 nM; in the assay on prostate line LNCap it was 14000 nM; at Human mTOR (FLAG-TOR), 145 nM; with breast line MDA468 it was 38000 nM.
For `COC(=O)Nc1ccc(-c2nc(N3CC4CCC(C3)O4)c3cnn(C4CCN(C(=O)OC(C)C)CC4)c3n2)cc1` [Example 74, isopropyl 4-[6-{4-[(methoxycarbonyl)amino]phenyl}-4-(8-oxa-3-azabicyclo[3.2.1]oct-3-yl)-1H-pyrazolo[3,4-d]pyrimidin-1-yl]piperidine-1-carboxylate], the IC50 on PI3K [1] (PI3 Kinase γ) came to 9500 nM; at PI3K [2] (PI3 Kinase α), 4480 nM; with prostate line LNCap, 200 nM; against Human mTOR (FLAG-TOR), 4.5 nM; with breast line MDA468, 6000 nM.
On the same counts, the results for `CC(C)C(=O)N1CCC(n2ncc3c(N4CC5CCC(C4)O5)nc(-c4ccc(NC(=O)Nc5ccccc5)cc4)nc32)CC1` [Example 87, 1-{4-[1-(1-isobutyrylpiperidin-4-yl)-4-(8-oxa-3-azabicyclo[3.2.1]oct-3-yl)-1H-pyrazolo[3,4-d]pyrimidin-6-yl]phenyl}-3-phenylurea] are 7020 nM, 396 nM, 30 nM, 0.8 nM and 120 nM.
For the compound `COC(=O)N1CCC(n2ncc3c(N4CC5CCC(C4)O5)nc(-c4ccc(NC(=O)NCCF)cc4)nc32)CC1` [Example 10, methyl 4-[6-(4-{[(2-fluoroethyl)carbamoyl]amino}phenyl)-4-(8-oxa-3-azabicyclo[3.2.1]oct-3-yl)-1H-pyrazolo[3,4-d]pyrimidin-1-yl]piperidine-1-carboxylate], the IC50 on PI3K [1] (PI3 Kinase γ) turned out to be 6590 nM; at PI3K [2] (PI3 Kinase α) it was 4930 nM; in the assay on prostate line LNCap it was 12 nM; against Human mTOR (FLAG-TOR), 0.34 nM; with breast line MDA468 it was 220 nM.
Take `COCC(COC)n1ncc2c(N3CC4CCC(C3)O4)nc(-c3ccc(NC(=O)Nc4ccncc4)cc3)nc21` [Example 325, 1-(4-{1-[2-methoxy-1-(methoxymethyl)ethyl]-4-(8-oxa-3-azabicyclo[3.2.1]oct-3-yl)-1H-pyrazolo[3,4-d]pyrimidin-6-yl}phenyl)-3-pyridin-4-ylurea]: the IC50 at PI3K [1] (setting [3]) was 4980 nM; at PI3K [2] (setting [4]), 601 nM; in the assay on prostate line LNCap, 2 nM; on Human mTOR (FLAG-TOR) (setting [5]) it was 1.6 nM; in the assay with breast line MDA468, 19 nM.
Regarding `O=C(Nc1ccc(CCO)cc1)Nc1ccc(-c2nc(N3C4CCC3COC4)c3cnn(CC(F)(F)F)c3n2)cc1` [Example 272, 1-[4-(2-hydroxyethyl)phenyl]-3-{4-[4-(3-oxa-8-azabicyclo[3.2.1]oct-8-yl)-1-(2,2,2-trifluoroethyl)-1H-pyrazolo[3,4-d]pyrimidin-6-yl]phenyl}urea], the IC50 on PI3K [1] (PI3 Kinase γ) is 1150 nM; at PI3K [2] (PI3 Kinase α), 132 nM; in the assay on prostate line LNCap, < 1 nM; on Human mTOR (FLAG-TOR), 0.106 nM; in the assay on breast line MDA468 it was 1 nM.
With `CNC(=O)Nc1ccc(-c2nc(N3C4CCC3COC4)c3cnn(C4CCN(C(=O)OC)CC4)c3n2)cc1` [Example 356, methyl 4-[6-{4-[(methylcarbamoyl)amino]phenyl}-4-(3-oxa-8-azabicyclo[3.2.1]oct-8-yl)-1H-pyrazolo[3,4-d]pyrimidin-1-yl]piperidine-1-carboxylate], the IC50 at PI3K [1] (setting [3]) came out at 6740 nM; on PI3K [2] (setting [4]), 4270 nM; with prostate line LNCap it was 30 nM; against Human mTOR (FLAG-TOR) (setting [5]) it was 0.22 nM; in the assay on breast line MDA468, 50 nM.
Consider `CC(C)(C)n1ncc2c(N3CC4CCC(C3)O4)nc(-c3ccc(NC(=O)NCCO)cc3)nc21` [Example 97], for which the IC50 on PI3K [1] (PI3 Kinase γ) stood at 9500 nM; at PI3K [2] (PI3 Kinase α) it was 282 nM; with prostate line LNCap, 20 nM; against Human mTOR (FLAG-TOR), 0.34 nM; in the assay with breast line MDA468, 180 nM.
As for `CC(C)n1ncc2c(N3CC4CCC(C3)O4)nc(-c3ccc(NC(=O)OCC(O)CO)cc3)nc21` (stereo not shown) [Example 146, 2,3-dihydroxypropyl {4-[1-isopropyl-4-(8-oxa-3-azabicyclo[3.2.1]oct-3-yl)-1H-pyrazolo[3,4-d]pyrimidin-6-yl]phenyl}carbamate], the IC50 on PI3K [1] (PI3 Kinase γ) was determined as 7640 nM; at PI3K [2] (PI3 Kinase α), 2150 nM; in the assay with prostate line LNCap, 110 nM; at Human mTOR (FLAG-TOR), 2.9 nM; in the assay with breast line MDA468 it was 580 nM.
In the case of `CO[C@H]1CC[C@H](n2ncc3c(N4CC5CCC(C4)O5)nc(-c4ccc(NC(=O)NC5CC5)cc4)nc32)CC1` (relative stereo) [Example 399, 1-cyclopropyl-3-{4-[1-(trans-4-methoxycyclohexyl)-4-(8-oxa-3-azabicyclo[3.2.1]oct-3-yl)-1H-pyrazolo[3,4-d]pyrimidin-6-yl]phenyl}urea], the half-maximal inhibitory concentration (IC50) is 6600 nM on PI3K [1] (setting [3]); 1500 nM on PI3K [2] (setting [4]); 1 nM in the assay with prostate line LNCap; 0.52 nM at Human mTOR (FLAG-TOR) (setting [5]); 41 nM in the assay on breast line MDA468.
Taken in the same sequence, the figures for `COC(=O)N1CCC(n2ncc3c(N4C5CCC4COC5)nc(-c4ccc(NC(=O)OCCO)cc4)nc32)CC1` [Example 355, methyl 4-[6-(4-{[(2-hydroxyethoxy)carbonyl]amino}phenyl)-4-(3-oxa-8-azabicyclo[3.2.1]oct-8-yl)-1H-pyrazolo[3,4-d]pyrimidin-1-yl]piperidine-1-carboxylate] were 6800 nM, 7450 nM, 58 nM, 0.775 nM and 220 nM.
For the compound `Cn1ncc2c(N3CC4CCC(C3)O4)nc(-c3ccc(NC(=O)Nc4ccc(N5CCOCC5)cc4)cc3)nc21` [Example 238, 1-{4-[1-methyl-4-(8-oxa-3-azabicyclo[3.2.1]oct-3-yl)-1H-pyrazolo[3,4-d]pyrimidin-6-yl]phenyl}-3-(4-morpholin-4-ylphenyl)urea], the IC50 at PI3K [1] (PI3 Kinase γ) was > 10000 nM; at PI3K [2] (PI3 Kinase α), 371 nM; with prostate line LNCap, 1 nM; against Human mTOR (FLAG-TOR), 0.245 nM; in the assay with breast line MDA468, 8 nM.
`CCn1ncc2c(N3CC4CCC(C3)O4)nc(-c3ccc(NC(=O)NCCF)cc3)nc21` [Example 42, 1-{4-[1-ethyl-4-(8-oxa-3-azabicyclo[3.2.1]oct-3-yl)-1H-pyrazolo[3,4-d]pyrimidin-6-yl]phenyl}-3-(2-fluoroethyl)urea]: the IC50 at PI3K [1] (PI3 Kinase γ) is > 10000 nM; at PI3K [2] (PI3 Kinase α) it was 973 nM; in the assay on prostate line LNCap it was 31 nM; against Human mTOR (FLAG-TOR), 0.31 nM; in the assay on breast line MDA468, 120 nM.
On the same counts, the results for `COC(=O)N1CCC(n2ncc3c(N4CC5CCC(C4)O5)nc(-c4ccc(NC(=O)Nc5cccc(CO)c5)cc4)nc32)CC1` [Example 171, methyl 4-{6-[4-({[3-(hydroxymethyl)phenyl]carbamoyl}amino)phenyl]-4-(8-oxa-3-azabicyclo[3.2.1]oct-3-yl)-1H-pyrazolo[3,4-d]pyrimidin-1-yl}piperidine-1-carboxylate] are 1830 nM, 54 nM, 5 nM, 0.215 nM and 8 nM.
`COCC(COC)n1ncc2c(N3CC4CCC(C3)O4)nc(-c3ccc(NC(=O)OC)cc3)nc21` [Example 328, methyl (4-{1-[2-methoxy-1-(methoxymethyl)ethyl]-4-(8-oxa-3-azabicyclo[3.2.1]oct-3-yl)-1H-pyrazolo[3,4-d]pyrimidin-6-yl}phenyl)carbamate]: the IC50 on PI3K [1] (setting [3]) is > 10000 nM; at PI3K [2] (setting [4]) it was 5770 nM; with prostate line LNCap, 2350 nM; at Human mTOR (FLAG-TOR) (setting [5]), 125 nM; with breast line MDA468, 9200 nM.
With `Cn1ncc2c(N3CC4CCC(C3)O4)nc(-c3ccc(NC(=O)NC4CC4)cc3)nc21` [Example 53, 1-cyclopropyl-3-{4-[1-methyl-4-(8-oxa-3-azabicyclo[3.2.1]oct-3-yl)-1H-pyrazolo[3,4-d]pyrimidin-6-yl]phenyl}urea], the IC50 on PI3K [1] (PI3 Kinase γ) was 8820 nM; at PI3K [2] (PI3 Kinase α), 845 nM; with prostate line LNCap, 72 nM; against Human mTOR (FLAG-TOR), 1.4 nM; in the assay on breast line MDA468, 800 nM.
On the same counts, the results for `CCOC(=O)N1CCC(n2ncc3c(N4CC5CCC(C4)O5)nc(-c4ccc(NC(=O)Nc5cccnc5)cc4)nc32)CC1` [Example 34, ethyl 4-[4-(8-oxa-3-azabicyclo[3.2.1]oct-3-yl)-6-{4-[(pyridin-3-ylcarbamoyl)amino]phenyl}-1H-pyrazolo[3,4-d]pyrimidin-1-yl]piperidine-1-carboxylate] are 2610 nM, 314 nM, < 0.8 nM, 0.12 nM and 25 nM.
